Patent publication US8119116B2, “Therapeutics for cancer using 3-bromopyruvate and other selective inhibitors of ATP production” (John Hopkins University School of Medicine, priority 2001, dated 2012)

Columns and labels:
[1] = tested on: liver implanted VX2 tumors; assay: Systemic delivery via marginal ear vein, effect on liver implanted VX2 tumors; assay type: in vivo, rabbit; settings: 25 ml, 0.5 mM via a marginal ear vein
Procedure: (§1) Normal tissues and tumors were fixed in 10% formalin, sliced at […] intervals for gross examination, and then embedded completely in paraffin after which […] sections were stained with hemotoxylin and eosin. Tumor viability was estimated by visual inspection and expressed as a percentage of viable tumor area for each slice. The overall percentage of viable tumor in each rabbit was calculated.
(§2) Finally, it was important to examine the effect of 3-BrPA when delivered systemically (i.e., via the general circulation) on both animal toxicity and its capacity to damage liver implanted tumors.

[2] = tested on: rabbits harboring liver implanted VX2 tumors; assay: Systemic delivery via marginal ear vein, animal toxicity; assay type: in vivo, rabbit; settings: 25 ml, 0.5 mM via a marginal ear vein
Procedure: as §1, §2

[3] = tested on: liver implanted VX2 tumors; assay: Direct intraarterial injection into liver implanted VX2 tumors, tumor histology; assay type: in vivo, rabbit; settings: single intraarterial injection
Excerpt: The rabbit VX2 tumor was selected for implantation in the liver because of the similarities of its blood supply to that of human hepatomas. Other attributes of this tumor include rapid tumor growth, development of a sizable tumor that can be readily identified by x-ray imaging (fluoroscopy), and a biochemical phenotype characteristic of advanced stage tumors, i.e., high glycolysis and elevated levels of mitochondrial bound hexokinase. In addition, the rabbit is large enough that selective manipulation of catheters in the hepatic artery from the common femoral artery for delivery of agents is possible. Adult New Zealand white rabbits (32 total, Robinson Services, Inc.) weighing 3.5-4.2 kg were used. Studies with these animals were approved by the Johns Hopkins University Animal Care and Use Committee and carried out according to their guidelines. For successful implantation of the VX2 tumor into the liver, it was first grown for 2 weeks on the hind leg of a carrier rabbit. Each carrier rabbit was used to supply tumor cells for implantation into the left lobe of the liver of 2 separate rabbits. All animals, carriers and recipients, were anesthetized with a mixture of acepromazine (2.5 mg/kg) and ketamine hydrochloride (44 mg/kg) administered intramuscularly. Intravenous access was gained via a marginal ear vein and sodium pentothal was given intravenously to maintain anesthesia. The VX2 tumor was then excised from the carrier rabbit and placed in Hanks solution. Chunks of the tumor were minced in the same solution. Then, the abdomens of the recipient rabbits were shaved and prepped with betadine after which a midline subxyphoid incision was made. The anterior surface of the liver was exposed and tumor cells (0.1-0.2 ml) from the minced donor tumor were directly implanted onto the left lobe of the liver using the outer cannula of a 21-gauge angiocatheter. This method allows the growth of a single solitary, well-demarcated tumor in the liver of each recipient rabbit. The abdomen was closed in 2 layers. Proper aseptic technique was rigorously observed during each implantation. After surgery, animals were returned to their cages, kept warm with blankets, and monitored in the animal laboratory under the direct supervision of a physician or a technician until they recovered from anesthesia. […] The tumors were allowed to grow for another 14 days at which time they reached an ellipsoidal shape with dimension of approximately 1.5×1.8×2.5 cm. […]
Administration of anesthesia, intravenous access and sodium pentothal anesthesia were carried out as described in Example 12. […] The tumor could readily be visualized as a region of hypervascular blush located on the left side of the liver near the gastric fundus. […]

[4] = tested on: rabbit VX2 tumor mitochondria; assay: Mitochondrial respiration (oxygen consumption); assay type: biochemical; settings: 1.2 mM
Procedure: The freshly isolated liver or VX2 tumor tissues (15-20 g wet weight) was rinsed in 3 volumes of H-medium (210 mM D-mannitol, 70 mM sucrose, 2 mM Hepes, and 0.05% bovine albumin, pH 7.4) at 4° C. and minced with a razor blade as finely as possible. A 30% (V/V) suspension was made using ice-cold H-medium in a Potter-Elvehjem glass homogenizer (55 ml capacity), and homogenization was achieved by applying 4 complete up and down strokes through the suspension with a rotating (˜400 rpm), serrated, teflon pestle attached to a motor. To remove cell debris and nuclei, the resultant homogenate was diluted to twice the initial volume and centrifuged at 630×g for 8 minutes at 4° C. in a Sorvall RC-2B centrifuge using a GSA rotor. The supernatant was removed and then centrifuged at 6,800 g for 15 min under the same conditions. The resultant supernatant was saved and referred to here as the cytosolic faction. […]
Oxygen consumption rates were measured polarographically using a Clark oxygen electrode inserted into a 2.5 ml chamber equipped with a magnetic stirrer. […] The loss of oxygen was monitored in a 2.1 ml system at 25° C. containing 1 mg mitochondria, 0.5 mM EDTA, 2.0 mM Hepes, 220 mM D-mannitol, 70 mM sucrose, 2.5 mM KPi, 2.6 mM MgCl2, and 0.5 mg/ml bovine albumin, and, where indicated, 7.8 mM succinate (respiratory substrate), and 0.24 mM ADP (ATP synthesis substrate). […]

[5] = tested on: AS-30D hepatoma cells; assay: Hepatoma cell viability by trypan blue; assay type: cell-based, rat; settings: 5 mM, 12 h
Procedure: AS-30D hepatoma cells grown in the peritoneal cavity of Sprague Dawley female rats (see Materials) were adapted to grow in tissue culture in Dulbecco's modified Eagle's medium containing 10% fetal bovine serum. Cells were maintained at 37° C. in a humidified atmosphere containing 5% CO2, and counted in a Neubauer chamber after trypan blue dye addition (cell/dye volume=1/1) by visualization under a Nikon inverted microscope.
The studies described above using the VX2 tumor model for liver cancer predict that 2DOG and 3BrPA may have the capacity to kill hepatoma cells expressing the high glycolytic/high hexokinase phenotype. […] Cell killing was assessed in these experiments by counting those cells in which trypan blue had entered.

[6] = tested on: "metastatic" lung tumors; assay: Systemic delivery via marginal ear vein, effect on metastatic lung tumors; assay type: in vivo, rabbit; settings: 25 ml, 0.5 mM, 4 days
Procedure: as §1, §2

O=C(O)C(=O)CBr [3BrPA, 3-bromopyruvic acid]
killing effect on liver implanted VX2 tumors [1]: no killing effect | animal behavior [2]: normal behavior | histological examination of 9 major tissues ([2]; 4 days): no obvious damage | maximal number of non-viable cells observed in any one experiment [3]: 90% | total non-viable cells in the tumor ([3]; 25 ml 0.5 mM, 4 days): 84±5% | viable cells in the tumor ([3]; 25 ml 0.5 mM, 4 days): 16±5% | necrosis in tumor sections outside the central core region ([3]; 4 days): ~100% | inhibition of mitochondrial respiration (basal succinate rate and ADP stimulated rate) [4]: completely inhibits | cells killed (trypan blue uptake) [5]: killing all cells | size of secondary tumors in the lungs [6]: only very small tumors | "metastatic" lung tumors greater than 1 mm in diameter ([6]; 5 in untreated animals): almost complete disappearance and none
